# Conditions: acidic group
row,Compound,pKa
1,COc1cccc([N+](=O)[O-])c1O,6.74
2,O=C(O)C#COc1ccccc1,3.09
3,CC(=O)CC(=O)Nc1ccc(C)cc1,10.2
4,O=C(O)C1CCCc2ccccc2O1 (centres undefined),3.63
5,O=C(O)/C=C\c1ccc(O)cc1,4.08
6,CCOc1ccc(O)cc1,10.2
7,O=C1/C(=C2\C=CC=CN2)C(=O)c2cc([N+](=O)[O-])ccc21,9.26
8,CCN(CC)C(=S)NC(=O)c1cccc(F)c1,8.21
9,O=[N+]([O-])c1ccc(NC=S)cc1,10.1
10,O=C(NO)c1cccc([N+](=O)[O-])c1,8.07
11,Cc1ccc(O)c(=O)cc1,7.32
12,C[C@]12CC[C@@H]3c4ccc(O)cc4CC[C@H]3[C@@H]1C[C@@H](O)[C@@H]2O,10.8
13,CCC(O)C(C(=O)O)c1ccc(-c2ccccc2)cc1 (centres undefined),4.16
14,C[n+]1nc(O)ccc1[O-],5.65
15,CC1=NS(=O)(=O)c2cccnc2N1,7.64
16,Cc1c(C)c2c(c(C)c1OP(=O)([O-])O)CCC(C)(CCC[C@@H](C)CCC[C@@H](C)CCCC(C)C)O2 (some centres undefined),9.44
17,CN1Cc2[nH]cnc2N(C)C1=O,11.2
18,O=C(O)CS/C=C/c1ccccc1,3.5
19,[NH3+]C(Cc1n[nH]c2ccccc12)C(=O)O (centres undefined),2.2
20,Cc1ccc(S(=O)(=O)N(CCNCC(=O)[O-])CC(=O)[O-])cc1,7.83
21,C/C(=N/O)c1ccccc1,11.5
22,Cc1cc(O)ccc1C(=O)O,4.71
23,CCC(=O)c1cc(C(C)=O)n[nH]1,9.05

row,Compound,pKa
1,COC(=O)CC(=O)c1ccncc1,8.24
2,O=S1(=O)OC(c2cc(Br)c(O)c(Br)c2)(c2cc(Br)c(O)c(Br)c2)c2ccccc21,4.2
3,Cc1cc([N+](=O)[O-])ccc1C(=O)O,2.91
4,O=C(O)CCc1ccoc1,4.44
5,Cn1c(=O)[nH]c(=O)c2[nH]cnc21,8.49
6,Oc1cccc2ccnnc12,8.25
7,O=C(N/N=C/c1ccccc1O)c1ccncc1,8.31
8,Cc1nnc(C)n1O,6.5
9,CSc1ncnc2nc[nH]c12,8.74
10,CC(=O)Nc1nnn[nH]1,4.53
11,CCC(C)[C@H]([NH3+])C(=O)O (some centres undefined),2.26
12,CC(C[NH3+])C(=O)O (centres undefined),3.53
13,CC(=O)OCC(=N/[O-])/C(C)=N/O,11.5
14,[NH3+]C(CC(=O)O)c1cccc[nH+]1 (centres undefined),1.3
15,Nn1cnnc1S,7.47
16,N#CC(C#N)=NNc1cccc(O)c1,6.45
17,O=C(O)C1(O)CCCCCC1,4.04
18,CC/C([N+](=O)[O-])=[N+](/[O-])O,4.1
19,CCC1(C)OC(=O)NC1=O (centres undefined),6
20,NC(=O)CS(=O)(=O)NC(N)=O,5.05
21,Cc1ccc(OC(O)(CBr)c2ccccc2)cc1 (centres undefined),11.2
22,CC(C)c1ccc(C(=O)O)cc1,4.31
23,C#CCCCCC(=O)O,4.58

row,Compound,pKa
1,Cc1c(C(=O)O)cccc1[N+](=O)[O-],2.98
2,Cc1cccc(C[N+](=O)[O-])c1,6.97
3,Cc1csc(-c2ccc(NS(=O)(=O)c3ccc(N)cc3)cc2)n1,8.5
4,CC(=O)NC(Cc1c[nH]c[nH+]1)C(=O)O (centres undefined),2.94
5,O=C(O)C#CSc1ccccc1,2.11
6,O=C(O)Cc1ccccc1,4.27
7,Cn1cnc(/N=N/O)n1,5.48
8,O=Cc1ncccc1O,6.95
9,Nc1nc(N)c2[nH]c(N)nc2n1,10.8
10,O=CC1CCCCC1=O (centres undefined),6.35
11,OCCO,14
12,S=CNc1ccccc1Cl,10
13,Oc1ccc(-c2ccc(O)cc2)cc1,9.4
14,O=c1cccccc1S,5.9
15,OCc1nc2cc(Cl)ccc2[nH]1,11.5
16,Oc1ccc(Cl)cc1C[NH+]1CCCC1,8.3
17,Cc1ccc(O)c2[n+]1CCS2,4.7
18,CCc1cc(Cl)c(O)c(C(=O)NC[C@H]2CCC[NH+]2CC)c1OC,6.91
19,NS(=O)(=O)c1ccc(P(=O)([O-])O)cc1,6.38
20,O=C1Cc2c1cc([N+](=O)[O-])c(O)c2Br,2.88
21,C=C(C)C1=C(O)CC(C)CC1 (centres undefined),11.9
22,Oc1ccc2cnc3ccccc3c2c1,8.43

# Same assay, conditions: basic group
row,Compound,pKa
1,CC(C)NCCc1ccc([O-])cc1,10.8
2,O=C(CCN1CCOCC1)c1cccc([N+](=O)[O-])c1,6.5
3,C[C@@H]1[C@@H](N)[C@H]1[NH3+],4.35
4,CN[C@@H]1[C@@H](C)[C@@H]1NC,9.13
5,Cc1cccc(C)c1C(=N)c1ccccc1,7.71
6,COc1ccc2nc3c(c(N4CCOCC4)c2c1)CCC3,7.14
7,NCCCCl,9.89
8,CN(C)C[C@@H]1[C@H](CO)[C@H]2C=C[C@@H]1C2,9.54
9,CN(C)CCNCCN(C)C,9.59
10,Nc1ccc(-c2cnc(-c3ccccc3)o2)cc1,3.68
11,CCCCCCCCCCCCCCCCN,10.6
12,C=CCC(C)(CN(CC)CC)OC(=O)CCC (centres undefined),8.5
13,Nc1ncc(Sc2ccccc2)s1,4.16
14,c1ccc(-c2nnc(-c3ccccc3)o2)cc1,1.96
15,CCC(=O)C(CCN1CCOCC1)(c1ccccc1)c1ccccc1,6.98
16,CC[C@]12CCCN3CC[C@@]4(c5cccc(OC)c5N(C(C)=O)[C@H]4CC1)[C@@H]32,7.57
17,Cc1ccc2c(c1)c1c3c(nccn32)CCC1,6.24
18,O=C([O-])CCCCCN1CCCCC1,10.5
19,Cc1ccc(NCCNc2ccc(C)cc2)cc1,4
20,COc1ccc(C2CCC[NH+]2C)cn1 (centres undefined),1.34
21,Nc1cnccn1,3.14
22,CC(C)SC(=N)c1ccccc1,8.04

row,Compound,pKa
1,Cc1ccccc1NC(=O)CN1CCCCC1,7.7
2,COc1ccc(-c2cn3cccnc3n2)c(OC)c1,4.34
3,N#CN,1.1
4,CNN,7.87
5,Cn1ccc(=S)c2ccccc21,0.56
6,COC(=O)c1ccncc1,3.38
7,CN(C)/C=N/c1cccc(Br)c1,8.08
8,CCN(C)CCOCCN(CC)CC,10.1
9,CCCCCN(CCO)CC(C)O (centres undefined),8.9
10,c1ccc(-c2ccc3nc(C[NH+]4CCOCC4)cn3n2)cc1,1.4
11,Clc1cc(-c2ccccc2)nnc1NCC[NH+]1CCOCC1,2.54
12,CCCCN(C)N(C)CCCC,7.16
13,CN(C)CCCCC(=O)Oc1cccc([N+](=O)[O-])c1,10.1
14,Nc1ccnc2c([O-])cccc12,10.7
15,Cn1c(=O)[nH]c(=O)c2[nH]cnc21,0.78
16,Oc1cccc2ccnnc12,2.72
17,O=C(N/N=C/c1ccccc1O)c1ccncc1,3.33
18,Cn1cnc2cc(N)ccc21,6.29
19,CCCN(CC)c1ccccc1,6.39
20,C1CCC(N2CCCC2)CC1,10.7
21,Clc1ccc(C/C(=C\CN2CCCC2)c2ccccc2)cc1,8.77
22,c1ccc(-c2ccnc3c2ccc2c(-c4ccccc4)ccnc23)cc1,4.84

row,Compound,pKa
1,Cc1cc(C)[nH+]c([S-])n1,2.8
2,COc1ccc(OC)c(N)c1,3.72
3,[NH3+]CCCc1ccncc1,5.51
4,NCCCC(=O)[O-],10.5
5,[NH3+]CCCCCc1ccncc1,5.99
6,CC12CN3CC(C)(C1)CC(C)(C3)C2,10.7
7,CN1CCN(C(c2ccccc2)c2ccccc2)CC1,8.05
8,Cc1ccc2ccc3ccc(C)nc3c2n1,6.15
9,Nc1ccc(Cc2ccc(N)cc2)cc1,5.1
10,CCNc1cc[nH+]c([O-])n1,4.58
11,Cn1c([O-])[nH+]c2cnc([O-])nc21,8.74
12,c1c[nH+]c(Cc2nc(Cc3c[nH]c[nH+]3)c[nH]2)[nH]1,3.94
13,CC1=CCN2CC[C@@H](O)[C@@H]12,9.6
14,CC(C)CNc1ccccc1,4.84
15,N/C(=N\O)C([NH3+])c1ccccc1 (centres undefined),2.3
16,CC(C)N/C=N/c1ccc(-c2cncn2C)cc1,8.83
17,Cc1ccc([N+](=O)[O-])cc1/C(=N/CCCN(C)C)c1ccccc1,8.8
18,Cc1n[nH]c2c(N)ncnc12,5.02
19,CC(=O)C1(c2cccc(O)c2)CCN(C)CC1,8.61
20,Nc1ncc(Cl)s1,3.66
21,CCN(CC)N(CC)CC,7.31
22,O=C([O-])CN1CCCCC1,10.3

row,Compound,pKa
1,Nc1cc(-c2ccccc2)nc2ccccc12,8.2
2,NCCC[n+]1cc(Br)c2ccccc2c1,9.53
3,CCOCCNc1cccc(C)c1,4.24
4,Nc1nnnn1-c1cccc([N+](=O)[O-])c1,0.47
5,Cc1ccnc([S-])[nH+]1,2.2
6,CCc1cccc(CN(C)C)c1O,8.02
7,Fc1cccc2[nH]cnc12,4.4
8,CC1=CC(=C2C=CC=CC=C2)C=C(C)C1=O,6.26
9,CN(C)CC#N,4.5
10,CSc1cccnc1,4.45
11,CCN(CC)C(C)C(=O)Nc1c(C)cccc1C (centres undefined),8.11
12,NCC#CC#CCCC(=O)[O-],8.26
13,NC(=O)/C=C(\O)c1ccncc1,7.36
14,COc1cc(C[NH3+])c(C)cc1N,4.26
15,c1c[nH]c(Cc2[nH]cc[nH+]2)n1,4.9
16,CN1CCOCC1,7.66
17,CCCCCCCCCCCCCCN(CCO)CC(O)CC (centres undefined),6.1
18,Cc1ccc(N)cc1Br,4.02
19,Cc1cccc(/N=C/N(C)C)c1,9.11
20,O=Cc1ncccc1O,3.4
21,N[C@H]1CC(=O)N(CCCC[C@H]([NH3+])C(=O)[O-])C1=O,6
22,O=[PH]([O-])C([NH2+]Cc1cccnc1)c1ccccc1O (centres undefined),3.25

row,Compound,pKa
1,Nc1ncnc([S-])c1N,9.34
2,Nc1nc(N)c2[nH]c(N)nc2n1,6.23
3,CC1=NCCCC1,9.57
4,C(=C/c1nnnn1-c1ccccc1)/c1ccccc1,-2.81
5,Cc1ccc(-c2ncc(-c3ccccc3)o2)cc1,1.04
6,CCCC(=O)OCCN(C)C,8.31
7,OC[C@@H]1O[C@H](n2cnc3ccccc32)[C@@H](O)[C@H](O)[C@H]1O,4.01
8,OCc1nc2cc(Cl)ccc2[nH]1,4.63
9,Clc1cn[nH]c1,1.24
10,CCCC(=O)C(CCN1CCOCC1)(c1ccccc1)c1ccccc1,7.17
11,C=CCNCCCCCCCCCCC(=O)[O-],9.3
12,Cc1n[nH]cc1Cl,1.4
13,Cn1/c(=N\N)sc2ccccc21,6.1
14,COc1nc2ccccc2nc1C,1.38
15,Cc1ccc([N+](=O)[O-])cc1/C(=N/CCC[NH+](C)C)c1ccccc1,3.14
16,Oc1ccc2cnc3ccccc3c2c1,5.35
17,c1ccc2cc3ncccc3cc2c1,4.92
18,CC(O)CN(C)CC(C)O (centres undefined),8.7

# Reference: the pKa sets of Baltruschat and Czodrowski (2020)
